Experimental data published in ChEMBL document CHEMBL3352288, “Synthesis and biological evaluation of 9α- and 9β-hydroxyamino-parthenolides as novel anticancer agents” (Bioorg Med Chem Lett, 2014).

Legend:
Type in all cases: functional, cell-based
A549 = experiment: Anticancer activity against human A549 cells assessed as growth inhibition after 72 hrs by MTT colorimetric assay; settings: A549, 72 h
Hs 683 = experiment: Anticancer activity against human Hs 683 cells assessed as growth inhibition after 72 hrs by MTT colorimetric assay; settings: Hs 683, 72 h
SK-MEL-28 = experiment: Anticancer activity against human SK-MEL-28 cells assessed as growth inhibition after 72 hrs by MTT assay; settings: SK-MEL-28, 72 h
[1] = Anticancer activity against human Glioma cells assessed as growth inhibition after 72 hrs by MTT assay
MCF7 = experiment: Anticancer activity against human MCF7 cells assessed as growth inhibition after 72 hrs by MTT assay; settings: MCF7, 72 h
[2] = Anticancer activity against mouse B16F10 cells assessed as growth inhibition after 72 hrs by MTT colorimetric assay; settings: B16-F10, 72 h
T98G = experiment: Anticancer activity against human T98G cells assessed as growth inhibition after 72 hrs by MTT assay

Row | IC50 (A549) | IC50 (SK-MEL-28) | IC50 (MCF7) | Structure (SMILES) | IC50 (Hs 683) | IC50 [1] | IC50 [2] | IC50 (T98G)
1 | 10 µM | 19 µM | 21 µM | C/C1=C\CC[C@@]2(C)O[C@@H]2[C@H]2OC(=O)[C@@H](CN3CCCC3)[C@@H]2C[C@H]1O | 15 µM | 5 µM | 4 µM | –
2 | 18 µM | 16 µM | 16 µM | C/C1=C\CC[C@@]2(C)O[C@@H]2[C@H]2OC(=O)[C@@H](CN3CCCCC3)[C@@H]2C[C@H]1O | 7 µM | 4 µM | 4 µM | –
3 | 30 µM | 57 µM | 33 µM | C/C1=C\CC[C@@]2(C)O[C@@H]2[C@H]2OC(=O)[C@@H](CN3CCN(C)CC3)[C@@H]2C[C@H]1O | 33 µM | 36 µM | 25 µM | –
4 | 25 µM | 22 µM | 24 µM | C/C1=C\CC[C@@]2(C)O[C@@H]2[C@H]2OC(=O)[C@@H](CN3CCOCC3)[C@@H]2C[C@H]1O | 22 µM | 5 µM | 5 µM | –
5 | 17 µM | 19 µM | 19 µM | C/C1=C\CC[C@@]2(C)O[C@@H]2[C@H]2OC(=O)[C@@H](CN3CCN(c4ccccc4)CC3)[C@@H]2C[C@H]1O | 22 µM | 5 µM | 6 µM | –
6 | 22 µM | 25 µM | 24 µM | C/C1=C\CC[C@@]2(C)O[C@@H]2[C@H]2OC(=O)[C@@H](CN3CCN(c4ccccc4F)CC3)[C@@H]2C[C@H]1O | 25 µM | 6 µM | 6 µM | –
7 | 26 µM | 25 µM | 24 µM | COc1ccc(N2CCN(C[C@@H]3C(=O)O[C@H]4[C@H]3C[C@@H](O)/C(C)=C/CC[C@@]3(C)O[C@H]43)CC2)cc1 | 22 µM | 18 µM | 14 µM | –
8 | 9 µM | 23 µM | 18 µM | C/C1=C\CC[C@@]2(C)O[C@@H]2[C@H]2OC(=O)[C@@H](CN3CCCC3)[C@@H]2C[C@@H]1O | 10 µM | – | 7 µM | 15 µM
9 | 6 µM | 10 µM | 8 µM | C/C1=C\CC[C@@]2(C)O[C@@H]2[C@H]2OC(=O)[C@@H](CN3CCCCC3)[C@@H]2C[C@@H]1O | 7 µM | – | 6 µM | 17 µM
10 | 25 µM | 23 µM | 22 µM | C/C1=C\CC[C@@]2(C)O[C@@H]2[C@H]2OC(=O)[C@@H](CN3CCN(C)CC3)[C@@H]2C[C@@H]1O | 22 µM | – | 9 µM | 23 µM

Second part, the compound before the results:

Row | Structure (SMILES) | IC50 (A549) | IC50 (SK-MEL-28) | IC50 (MCF7) | IC50 (Hs 683) | IC50 [1] | IC50 [2] | IC50 (T98G)
11 | C/C1=C\CC[C@@]2(C)O[C@@H]2[C@H]2OC(=O)[C@@H](CN(C)CCN(C)C)[C@@H]2C[C@H]1O | 8 µM | 19 µM | 14 µM | 9 µM | 16 µM | 4 µM | –
12 | C[C@]12O[C@@H]1CC[C@@]1(C)O[C@@H]1[C@H]1OC(=O)[C@@H](CN3CCCCC3)[C@@H]1C[C@H]2O | 90 µM | 84 µM | 74 µM | 67 µM | 59 µM | 46 µM | –
13 | C[C@]12O[C@@H]1CC[C@@]1(C)O[C@@H]1[C@H]1OC(=O)[C@@H](CN3CCOCC3)[C@@H]1C[C@H]2O | 23 µM | 22 µM | 24 µM | 24 µM | 12 µM | 9 µM | –
14 | C[C@]12O[C@@H]1CC[C@@]1(C)O[C@@H]1[C@H]1OC(=O)[C@@H](CN3CCN(c4ccccc4)CC3)[C@@H]1C[C@H]2O | 48 µM | 51 µM | 59 µM | 31 µM | 35 µM | 22 µM | –
15 | C[C@]12O[C@@H]1CC[C@@]1(C)O[C@@H]1[C@H]1OC(=O)[C@@H](CN3CCN(c4ccccc4F)CC3)[C@@H]1C[C@H]2O | 22 µM | 17 µM | 20 µM | 18 µM | 8 µM | 5 µM | –
16 | C[C@]12O[C@@H]1CC[C@@]1(C)O[C@@H]1[C@H]1OC(=O)[C@@H](CN3CCN(c4ccc(Cl)cc4)CC3)[C@@H]1C[C@H]2O | 28 µM | 31 µM | 29 µM | – | – | 19 µM | 16 µM
17 | C=C1C(=O)O[C@H]2[C@H]1C[C@H](O)/C(C)=C/CC[C@@]1(C)O[C@@H]21 | 24 µM | 25 µM | 23 µM | 25 µM | – | 15 µM | 25 µM
18 | C=C1C(=O)O[C@H]2[C@H]1C[C@@H](O)/C(C)=C/CC[C@@]1(C)O[C@@H]21 | 7 µM | 9 µM | 6 µM | 7 µM | – | 4 µM | 11 µM
